Measurements: PMC10111022, “Comparison of pharmacological inhibitors of lysine-specific demethylase 1 in glioblastoma stem cells reveals inhibitor-specific efficacy profiles” (Frontiers in Neurology, 2023)

Experiments:
MDA-GSC lines = experiment: Cell proliferation of MDA-GSCs tracked over 5 days; assay type: cell-based, Human; details: 400 μM, after 5 days; all MDA-GSC lines apart from MDA-GSC311
Description: (§1) The alamarBlue cell viability (Bio-Rad; Hercules, CA) was performed on the MDA-GSCs according to the manufacturer’s protocol. The cells were plated at 5,000 cell/well into a 96-well plate and allowed to grow for 5 days. After 5 days, the alamarBlue reagent was added and fluorescence was measured with the Synergy 2 (BioTek Instruments; Winooski, VT) plate reader according to the manufacturer’s protocol.
Figure 3 Effects of GSK-LSD1 on GSCs cell proliferation and neurosphere formation. (A–I) Cell proliferation of MDA-GSCs was tracked over 5 days after treatment with GSK-LSD1 at 400 μM. Day five data was analyzed with a student’s t-test. ns = p > 0.05, *p ≤ 0.05, **p ≤ 0.01, ***p ≤ 0.001, ****p ≤ 0.0001. (J) Bar graphs showing the number of neurospheres formed by MDA-GSCs after treatment with GSK-LSD1. Grouped data was analyzed using a two-way ANOVA with the Šídák multiple comparisons test. ns = p > 0.05, ***p ≤ 0.001, ****p ≤ 0.0001.

brain tissue = experiment: qPCR of resistance-related genes in brain tissue of treated xenograft mouse; assay type: in vivo; details: treated mouse vs control mouse after succumbing to tumor burden
Description: (§2) Total RNA was extracted using RNeasy Plus Mini Kit (Qiagen; Hilden, Germany) following the manufacturer’s protocol. cDNA was synthesized with the iScript cDNA synthesis kit (Bio-Rad; Hercules, CA), qPCR was performed using Forget-Me-Not EvaGreen qPCR kit (Biotium; Fremont, CA), and samples were analyzed with the LightCycler96 (Roche; Basel, Switzerland). Cq values were normalized to PPIA and reported as relative fold change from untreated control.
We then measured the gene expression of the candidate gene set in brain tissue of a mouse treated with GSK-LSD1 compared to a control mouse after they succumbed to tumor burden. […] Finally, we assessed the presence of this gene set in patient data acquired from TCGA ([17], [18]). In a dataset of glioblastoma patient samples, LSD1 expression has an inverse relationship with the genes that correlate with resistance (Figures 6H,I). We then assessed the correlation between resistance related gene expression and GBM subtypes using TCGA (Figure 6J). From this analysis, we find that the mesenchymal subtype has an increased expression of HKDC1 and RAB3IL1 compared to classical and proneural. […] Overall, our established gene set may predict resistance to LSD1 inhibition and is concordant across in vitro experiments, in vivo studies, and is expressed in a LSD1 dependent manner in GBM patients.

human T cells = tested on: human T cells; set-up: method as in PMID 32166329; details: direct effect on human T cells; cited from earlier work
[1] = tested on: MDA-GSC20 orthotopic xenograft; experiment: Intracranial orthotopic xenograft model, bioluminescence tumor burden and survival; assay type: in vivo, athymic nude mice
Description: All animal experiments were approved by the University of Texas MD Anderson Cancer Center Institutional Animal Care and Use Committee (IACUC) under protocol 638 (P.I. Chandra). An equal number of male and female athymic nude mice aged 4–6 weeks old were bolted with guide screws by MD Anderson’s Brain Tumor Center Animal Core as previously described ([16]). Ketamine/xylazine was administered for anesthesia and buprenorphine or buprenorphine sustained-release (SR) was administered for analgesia during and after the surgery. MDA-GSC20 luciferase labelled cells were resuspended in PBS and 500,000 cells were intracranially implanted into each mouse via guide screw. To monitor tumor engraftment and tumor progression throughout treatment, each mouse was imaged weekly using an IVIS 200 imager (Perkin Elmer; Waltham, MA). Mice were anesthetized via inhalation of isoflurane and injected with 200 μL of D-Luciferin (GoldBio; St Louis, MO) subcutaneously. Bioluminescence signal in the mice was read and reported as photons/s.
Once confirmation of intracranial tumor engraftment at 7 days post-engraftment, the mice were equally randomized into groups to receive either GSK-LSD1 or the vehicle control. The mice received GSK-LSD1 1 mg/kg diluted in DMSO and PBS (5 and 95%, respectively) via intraperitoneal injection (200 μL/mouse) while the control mice received the untreated vehicle in parallel. In accordance with the approved IACUC protocol (No: 638-RN03) at MD Anderson Cancer Center, treatment continued until the mice succumbed to tumor burden and were found in a moribund condition as determined by neurological impairment (hydrocephalus, seizures, inactivity, and/or ataxia) or morbidity (hunched posture or weight loss). At this time mice were euthanized by both carbon dioxide exposure and cervical dislocation. […]

MDA-GSC 23 = experiment: Cell viability dose response (IC50), MDA-GSC 23; assay type: cell-based; details: Homo sapiens, mean of three independent experiments
Description: (§3) MDA-GSCs were plated at 50,000 cells/well into 12-well plates at and allowed to grow for 5 days until neurospheres were formed. The cells were then treated with either TCP, GSK-LSD1, or RN-1 at various concentrations for 5 days. Next, the cells were collected and neurospheres were dissociated with Accutase (BioLegend; San Diego, CA). Cell viability was determined using a trypan dye exclusion assay and read with the Vi-Cell XR Cell Viability Analyzer (Beckman Coulter; Brea, CA). NHAs were plated at 50,000 cells/well into 12-well plates and allowed to adhere overnight. The following day, NHAs were treated with the LSD1 inhibitors. After 5 days, the cells were detached using TrypLE and assessed with the trypan blue dye exclusion assay.
as §1

MDA-GSC 8–11 = experiment: Cell viability dose response (IC50), MDA-GSC 8–11; assay type: cell-based; details: Homo sapiens, mean of three independent experiments
Description: as §3, §1

MDA-GSC17 = experiment: qPCR of resistance-related genes, MDA-GSC17; assay type: cell-based, Human; details: MDA-GSC17 (sensitive)
Description: as §2

NHA = experiment: Cell viability dose response (IC50), normal human astrocytes; assay type: cell-based
Description: as §3, §1

MDA-GSC 262 = experiment: Cell viability dose response (IC50), MDA-GSC 262; assay type: cell-based; details: Homo sapiens, mean of three independent experiments
Description: as §3, §1

MDA-GSC 7–11 = experiment: Cell viability dose response (IC50), MDA-GSC 7–11; assay type: cell-based; details: Homo sapiens, mean of three independent experiments
Description: as §3, §1

c1ccc([C@@H]2C[C@H]2NC2CCNCC2)cc1 [GSK-LSD1]
effect on MDA-GSC proliferation (MDA-GSC lines): Consistent anti-proliferative effects | expression of candidate gene set in brain tissue (brain tissue): three of the four genes, except for FAM213A, were upregulated | human T cell growth (human T cells): minimally impacted | rate of tumor progression ([1]; 1 mg/kg intraperitoneal, week 11, vs control mice): lower rate of tumor progression | tumor burden (bioluminescence) ([1]; 1 mg/kg intraperitoneal, week seven, vs control): strong regression in tumor burden | overall survival ([1]; continued dosing beyond week 11): ineffective to improve overall survival | IC50 (MDA-GSC 23): > 750 µM | IC50 (MDA-GSC 8–11): 726 µM | expression of resistance-related genes (MDA-GSC17): not | IC50 (NHA; Homo sapiens, Astrocyte, NHA, mean of three independent experiments): > 750 µM | effect on NHA viability (NHA; NHA treated at the maximum concentration tested for each compound): minimal effect | IC50 (MDA-GSC 262): > 750 µM | IC50 (MDA-GSC 7–11): 606 µM
